The term IC50 denotes the concentration that inhibits the measured activity by half. High values mean weaker potency in that assay, low ones greater potency in that assay.

From patent publication US6653478B2, “Substituted benzimidazol-2-ones as vasopressin receptor antagonists and neuropeptide Y modulators” (Ortho-McNeil Pharmaceutical, Inc., priority 2000, dated 2003) come the findings set out here.

Holding throughout (design): expressed in transfected cells; host or cells: HEK-293 (membranes)
One assay concerns the target human V1a receptor (Homo sapiens, UniProt P37288). Description: V1a binding assay (3H-AVP displacement, HEK-293 membranes). To be noted: for inhibition at 1 µM: 1.0 μM compound, read-out: V1a@1.0, % Inh. As for the experimental part:
(§1) V1a, V1b or V2 Binding Assay
(§2) Receptor binding studies were performed using recombinant human V1a, V1b or V2 receptors. Cellular membranes were harvested from HEK-293 cells transfected to express either the V1a, V1b or V2 receptors. Compounds were evaluated for their ability to displace ^3H-arginine vasopressin (^3H-AVP; specific activity 40-87 Ci/mmol; NEN Life Sciences, Boston, Mass.). Compounds were solubilized in dimethylsulfoxide (DMSO) and diluted to working concentration of 10% DMSO with assay buffer (50 mM Tris, 5 mM MgCl2, 0.1% BSA, pH 7.5). Assay buffer was supplemented with several protease inhibitors (1 mM Pefabloc, 5 μg/ml aprotinin/leupeptin/pepstatin A, 50 μg/ml bacitracin; Sigma Chemical, St. Louis, Mo.). Non-specific binding was determined using 1.25 μM arginine vasopressin (AVP; Peninsula Labs, Belmont, Calif.). Assay reagents and test compounds were added to 96-well round bottom polypropylene plates (145 μl buffer, 5 μl compound in 10% DMSO, 25 μl buffer containing 10,000 cpm tracer, 25 μl cell membrane). After incubation for 1 hour at room temperature, the well contents were aspirated across a Unifilter GF/C plate (Packard Instrument, Downers Grove, Ill.) which had been presoaked in 0.3% polyethyleneimine to prevent peptide sticking. The wells were washed repeatedly with cold saline containing 0.05% Tween 20. The plate was then dried and 25 μl Microscint-20 cocktail (Packard Instruments) added to each well. The plates were sealed and counted on a TopCount scintillation counter (Packard Instruments) using quench correction.

Another assay deals with T1, human V1b receptor (Homo sapiens, UniProt P47901).
T1 sequence (P47901 1-424): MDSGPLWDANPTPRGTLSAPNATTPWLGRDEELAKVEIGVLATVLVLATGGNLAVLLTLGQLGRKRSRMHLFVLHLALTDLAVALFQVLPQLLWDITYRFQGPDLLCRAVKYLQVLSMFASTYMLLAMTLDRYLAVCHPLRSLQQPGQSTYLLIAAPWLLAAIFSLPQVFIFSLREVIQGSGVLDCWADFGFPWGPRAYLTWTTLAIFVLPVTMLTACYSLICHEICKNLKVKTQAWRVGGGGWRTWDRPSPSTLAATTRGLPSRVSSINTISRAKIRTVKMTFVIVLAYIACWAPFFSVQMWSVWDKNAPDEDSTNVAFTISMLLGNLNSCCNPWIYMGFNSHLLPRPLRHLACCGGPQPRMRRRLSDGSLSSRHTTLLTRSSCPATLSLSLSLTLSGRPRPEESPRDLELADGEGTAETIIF
Description: V1b binding assay (3H-AVP displacement, HEK-293 membranes). The settings on record: for inhibition at 1 µM: 1.0 μM compound, read-out: V1b@1.0, % Inh. As for the experimental part:
as §1, §2

The target in another assay is human V2 receptor (Homo sapiens, UniProt P30518). The experiment in a line: V2 binding assay (3H-AVP displacement, HEK-293 membranes). To be noted: 1.0 μM compound; for inhibition at 1 µM: read-out: V2@1.0, % Inh; for V2@1.0, % Inh: 1 µM. Here is the method:
as §1, §2

human V1a receptor, sequence (P37288 whole entry): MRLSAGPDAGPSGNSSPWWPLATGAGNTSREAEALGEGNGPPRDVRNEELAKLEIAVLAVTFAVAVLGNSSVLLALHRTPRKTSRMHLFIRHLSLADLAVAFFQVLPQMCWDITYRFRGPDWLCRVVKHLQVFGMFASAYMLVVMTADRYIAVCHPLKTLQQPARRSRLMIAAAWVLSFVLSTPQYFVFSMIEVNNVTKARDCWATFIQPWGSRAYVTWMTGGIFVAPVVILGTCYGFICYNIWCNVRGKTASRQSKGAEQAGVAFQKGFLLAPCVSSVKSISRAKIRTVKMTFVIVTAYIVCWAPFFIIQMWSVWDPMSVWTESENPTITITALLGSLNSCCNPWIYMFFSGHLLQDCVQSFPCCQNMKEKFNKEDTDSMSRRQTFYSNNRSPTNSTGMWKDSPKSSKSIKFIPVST
human V2 receptor, sequence (P30518 whole entry): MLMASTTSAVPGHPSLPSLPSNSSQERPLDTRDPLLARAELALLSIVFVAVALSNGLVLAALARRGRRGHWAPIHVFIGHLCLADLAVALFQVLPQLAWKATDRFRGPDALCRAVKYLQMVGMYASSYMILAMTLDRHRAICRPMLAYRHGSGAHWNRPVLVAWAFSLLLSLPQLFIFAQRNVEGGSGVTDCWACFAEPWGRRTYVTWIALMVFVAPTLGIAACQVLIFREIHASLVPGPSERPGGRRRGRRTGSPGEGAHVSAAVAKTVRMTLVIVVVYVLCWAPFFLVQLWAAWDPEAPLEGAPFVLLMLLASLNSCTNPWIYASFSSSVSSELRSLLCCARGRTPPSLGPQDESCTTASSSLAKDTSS

As to `O=C(Cc1ccc(N2CCCC2)cc1)n1c(=O)n(C2CCN(C(=S)NC(c3ccccc3)c3ccccc3)CC2)c2ccccc21` [Compound 150], the figures for the inhibition at 1 µM at human V1a receptor, at human V1b receptor and on human V2 receptor were 38%, 16% and 0%, respectively.

As to `Cc1ccccc1CNC(=O)N1CCC(n2c(=O)n(CCCN3CCCCC3)c3ccccc32)CC1` [Compound 151], the results for the inhibition at 1 µM on human V1a receptor, on human V1b receptor and at human V2 receptor were 62%, 37% and 0%, respectively.

Consider `CCCN(CCC)CCCn1c(=O)n(C2CCN(C(=O)NC(c3ccccc3)c3ccccc3)CC2)c2ccccc21` [Compound 80, 1-[(N1-piperidinocarbonylbiphenylmethylamino)-4-yl]-3-(3-N,N-dipropylaminopropyl)-1,3-dihydrobenzimidazol-2-one], for which the IC50 on human V1a receptor was determined as 170 nM. The inhibition at 1 µM was 38% on human V1b receptor and 11% at human V2 receptor.

For `O=c1n(CCCN2CCCCC2)c2ccccc2n1C1CCN(C(=S)NCC2CCCO2)CC1` (stereo not shown) [Compound 159], the inhibition at 1 µM at human V1a receptor was 2%; on human V1b receptor, 10%; on human V2 receptor, 0%.

Compound `CC(CN1CCCCC1)Cn1c(=O)n(C2CCN(C(=O)NC(c3ccccc3)c3ccccc3)CC2)c2ccccc21` (stereo not shown) [Compound 147] registered an IC50 at human V1a receptor of 440 nM. Moreover, the inhibition at 1 µM on human V1b receptor stood at 27%; on human V2 receptor it was 1%.

In turn, `O=C(Nc1ccccc1-c1ccccc1)N1CCC(n2c(=O)n(CCCN3CCCCC3)c3ccccc32)CC1` [Compound 162] had a half-inhibitory concentration (IC50) on human V1a receptor of 117 nM. For the same compound, the values for the inhibition at 1 µM at human V1b receptor and at human V2 receptor were 26% and 4%, respectively.

Consider `Cc1ccc2c(c1)n(CCCN1CCCCC1)c(=O)n2C1CCN(C(=O)NC(c2ccccc2)c2ccccc2)CC1` [Compound 171], for which the inhibition at 1 µM at human V1a receptor worked out at 65%; at human V1b receptor, 33%; on human V2 receptor, 2%.

Consider `COc1ccc(C(NC(=S)N2CCC(n3c(=O)n(CCCN4CCCCC4)c4ccccc43)CC2)c2ccc(OC)cc2)cc1` [Compound 136], for which the half-maximal inhibitory concentration (IC50) at human V1a receptor amounted to 79 nM. In addition, the inhibition at 1 µM at human V1b receptor amounted to 50%; on human V2 receptor, 25%.

As for `O=c1n(CCCN2CCCCC2)c2ccccc2n1C1CCN(C(=S)NCc2ccccc2-c2ccccc2)CC1` [Compound 169], the IC50 came to 12 nM at human V1a receptor and 1720 nM on human V1b receptor. Further, the “V2@1.0, % Inh” value at human V2 receptor was 4%.

Compound `O=c1n(CCCN2CCCCC2)c2ccccc2n1C1CCN(C(=S)NCc2ccc(Cl)cc2Cl)CC1` [Compound 164] showed an IC50 at human V1a receptor of 86 nM. The values for the inhibition at 1 µM at human V1b receptor and at human V2 receptor were 35% and 5%, respectively.

`O=c1n(CCCNCC2CCCCC2)c2ccccc2n1C1CCN(C(=S)NC(c2ccccc2)c2ccccc2)CC1` [Compound 88, 1-[(N1-piperidinocarbothioylbiphenylmethylamino)-4-yl]-3-(3-cyclohexylmethylaminopropyl)-1,3-dihydrobenzimidazol-2-one]: the half-inhibitory concentration (IC50) at human V1a receptor stood at 36 nM; at human V1b receptor, 1000 nM. In addition, on human V2 receptor, the inhibition at 1 µM is 3%.

Consider `O=c1n(CCCN2CCCCC2)c2ccccc2n1C1CCN(C(=S)Nc2cccnc2)CC1` [Compound 154], for which the figures for the inhibition at 1 µM on human V1a receptor, at human V1b receptor and on human V2 receptor were 7%, 0% and 3%, respectively.

The compound `O=c1n(CCCC2CCCCC2)c2ccccc2n1C1CCN(C(=S)NC(c2ccccc2)c2ccccc2)CC1` [Compound 134, 1-[(N1-Piperidinocarbothioyldiphenylmethylamino)-4-yl]-3-(3-cyclohexylpropyl)-1,3-dihydro-benzimidazol-2-one] registered an IC50 at human V1a receptor of 450 nM. Moreover, the inhibition at 1 µM at human V1b receptor is 37%; at human V2 receptor, 0%.

Take `CC(C)c1ccccc1NC(=S)N1CCC(n2c(=O)n(CCCN3CCCCC3)c3ccccc32)CC1` [Compound 132, 1-[(N1-piperidinocarbothioyl-2-isopropylphenylamino)-4-yl]-3-(3-N-piperidinylpropyl)-1,3-dihydrobenzimidazol-2-one]: the inhibition at 1 µM on human V1a receptor came out at 66%; on human V1b receptor, 55%; at human V2 receptor, 0%.

For `O=c1n(CCCN2CCC2)c2ccccc2n1C1CCN(C(=S)NC(c2ccccc2)c2ccccc2)CC1` [Compound 140], the figures for the inhibition at 1 µM at human V1a receptor, at human V1b receptor and at human V2 receptor were 59%, 28% and 0%, respectively.

`O=c1n(CCCN2CCCCC2)c2ccccc2n1C1CCN(C(=S)Nc2ccc3c(c2)OCO3)CC1` [Compound 156] showed an IC50 at human V1a receptor of 450 nM. For the same compound, the inhibition at 1 µM came to 22% on human V1b receptor and 3% on human V2 receptor.

Regarding `O=c1n(CCCN2CCCCC2)c2ccccc2n1C1CCN(C(=S)N[C@]23C[C@H]4C[C@H](C[C@H](C4)C2)C3)CC1` [Compound 129, 1-[(N1-piperidinocarbothioyl-1-adamantylamino)-4-yl]-3-(3-N-piperidinylpropyl)-1,3-dihydrobenzimidazol-2-one], the IC50 at human V1a receptor is 73 nM. Moreover, the inhibition at 1 µM on human V1b receptor stood at 53%; at human V2 receptor it was 3%.

`O=c1n(CCCN2CCCCC2)c2ccccc2n1C1CCN(C(=S)NCc2ccccc2-c2ccccc2)CC1` [Compound 127] came in with a half-inhibitory concentration (IC50) at human V1a receptor of 22 nM. The inhibition at 1 µM at human V1b receptor was 45%. Besides, the “V2@1.0, % Inh” value at human V2 receptor stood at 0%.

With `Cc1ccc2c(c1)n(CCCN1CCCCC1)c(=O)n2C1CCN(C(=S)NC(c2ccccc2)c2ccccc2)CC1` [Compound 172], the IC50 is 72 nM on human V1a receptor and 700 nM at human V1b receptor. In addition, the inhibition at 1 µM at human V2 receptor is 6%.

In turn, `O=c1n(CCCN2CCCCC2)c2ccccc2n1C1CCN(C(=S)NCc2ccc(Cl)c(Cl)c2)CC1` [Compound 174] gave an IC50 on human V1a receptor of 420 nM. Besides, the inhibition at 1 µM on human V1b receptor is 34%; on human V2 receptor, 0%.

In the case of `O=c1n(CCCN2CCCCC2)c2ccccc2n1C1CCN(C(=S)NCc2ccc(Cl)cc2)CC1` [Compound 124, 1-[(N1-piperidinocarbothioyl-4-chlorobenzylamino)-4-yl]-3-(3-N-piperidinylpropyl)-1,3-dihydrobenzimidazol-2-one], the 50% inhibitory concentration (IC50) at human V1a receptor worked out at 29 nM. Also, the inhibition at 1 µM at human V1b receptor stood at 44%; at human V2 receptor, 3%.

Take `O=c1n(CCCN2CCCCC2)c2ccccc2n1C1CCN(C(=S)NC2CCCCC2)CC1` [Compound 125, 1-[(N1-piperidinocarbothioylcyclohexylamino)-4-yl]-3-(3-N-piperidinylpropyl)-1,3-dihydrobenzimidazol-2-one]: the 50% inhibitory concentration (IC50) at human V1a receptor is 390 nM. Besides, the inhibition at 1 µM at human V1b receptor worked out at 35%; on human V2 receptor, 0%.

As for `CSC(=O)NC(=N)N1CCC(n2c(=O)n(CCCN3CCCCC3)c3ccccc32)CC1` [Compound 166], the inhibition at 1 µM stood at 5% at human V1a receptor, 16% at human V1b receptor and 19% at human V2 receptor.

With `O=c1n(CCCN2CCC(N3CCCCC3)CC2)c2ccccc2n1C1CCN(C(=S)NC(c2ccccc2)c2ccccc2)CC1` [Compound 170], the values for the concentration for half-maximal inhibition (IC50) on human V1a receptor and on human V1b receptor were 80 nM and 680 nM, respectively. Also, the inhibition at 1 µM on human V2 receptor was 6%.

Consider `CC(CN1CCCCC1)Cn1c(=O)n(C2CCN(C(=S)NC(c3ccccc3)c3ccccc3)CC2)c2ccccc21` (stereo not shown) [Compound 146], for which the inhibition at 0.5 µM on human V1a receptor (0.5 μM compound, read-out: V1a % Inh @0.5) came to 15%. For the same compound, the inhibition at 1 µM amounted to 85% on human V1a receptor, 33% at human V1b receptor and 0% on human V2 receptor.
